Experiments:
[1] = tested on: a variety of unrelated viruses; conditions: Harvey et al. (2009) Antiviral Res.; read-out: EC50, inhibition of virus replication in vitro; cited from earlier work
[2] = tested on: MOLM-13 cells; assay: MOLM-13 xenograft survival study in NCG mice; type: in vivo; conditions: Cpd4 10 mg/kg PO TIWK (MWF); Daratumumab 1 µg/g IP TF; Isatuximab 2.5 mg/kg IP TF; start 4 days post engraftment; vehicle 16.5
Experimental: Xenograft Model Methodology. Animal studies were performed at Charles River Laboratories (CRL). 1E5 MOLM-13 cells were engrafted intravenously into NCG mice (males, 8-12-week old). 4 days post engraftment, mice were randomly enrolled to receive: • 1. Vehicle • 2. 10 mg/kg Cpd 53 orally (daily) • 3. 10 mg/kg Cpd 53 orally (TIWK, Monday, Wednesday, and Friday) • 4. 4 mg/kg BAY2402234 orally (daily) • 5. 1 µg/g Daratumumab via intraperitoneal injection (BIWK, Tuesday and Friday) • 6. 2.5 µg/g Isatuximab via intraperitoneal injection (BIWK, Tuesday and Friday) • 7. Cpd4 (daily) and Daratumumab (BIWK) combination • 8. Cpd4 (TIWK) and Daratumumab (BIWK) combination • 9. BAY2402234 (daily) and Daratumumab (BIWK) combination • 10. Cpd4 (daily) and Isatuximab (BIWK) combination • 11. […]
Procedures used in the study are as follows: • Mice with 1×10^5 MOLM-13 tumor cells in 0% Matrigel iv tail vein. • Study start is 4 days post implant • Animals were randomized into treatment groups based on Day 1 bodyweight. • Cell Injection Volume was 0.2 mL/mouse. • Age at Start Date: 8 to 12 weeks. • Body Weight: qd x 5 then biwk to end • Any individual animal with a single observation of > than 30% body weight loss or three consecutive measurements of >25% body weight loss was euthanized. • Any group with a mean body weight loss of >20 % or >10% mortality ceased dosing. […] Animals were to be monitored individually. […]

[3] = tested on: MV-411 cells with wild type (WT) p53; assay: CD38 surface expression by flow cytometry in MV-411 cells with wild type p53; type: cell-based; conditions: 1 µM, 72 hours, versus vehicle
Experimental: (§1) FIGS. 1A-1B show representative data for the effect of a representative DHODH inhibitor on the expression of CD38 in AML cells. Briefly, MV-411 cells with wild type (WT) p53 (FIG. 1A) or mutant p53 (FIG. 1B) were treated with brequinar (BRQ, 1 µM), or Cpd3 (1 µM) for 72 hours, and then the CD38 surface expression was determined by flow cytometry. The CD38 mean fluorescent intensity (MFI) is calculated based on the X-median expression.
(§2) MV-411 cells with wild type (WT) p53 or mutant p53 were treated with brequinar (BRQ, 1 µM), or Cpd3 (1 µM) for 72 hours. CD38 surface expression was determined by flow cytometry. The CD38 mean fluorescent intensity (MFI) is calculated based on the X-median expression. FIG. 1A show data obtained with MV-411 having wild type p53. […] FIG. 1B show the results obtained with MV-411 having a mutant p53.

[4] = tested on: MV-411 cells with mutant p53; assay: CD38 surface expression by flow cytometry in MV-411 cells with mutant p53; type: cell-based; conditions: 1 µM, 72 hours, versus vehicle
Experimental: as §1, §2

[5] = tested on: MV4-11 cells; assay: MV4-11 xenograft (secondary engraftment) survival study in NSG mice; type: in vivo; conditions: Cpd3 50 mg/kg PO MWF, daratumumab 1 µg/g IP TF
Experimental: FIGS. 2A-2D show representative data for the effect of a representative DHODH inhibitor in combination with an anti-CD38 antibody in a mouse xenograft model. FIG. 2A show representative data for percent survival versus time post-engraftment. Briefly, NSG mice were injected with 0.3 × 10^6 spleen cells from an MV4-11 engrafted leukemic donor mouse (N=7 per group). Starting at day 7 post-engraftment, mice were treated with vehicle; 50 mg/kg Cpd3 (PO; indicated as “Cpd3 PO” in the figure) on a dosing schedule of Monday/Wednesday/Friday (MWF); 1 µg/g daratumumab (IP; indicated as “Dara IP” in the figure) on a dosing schedule of Tuesday and Friday (TF); or Cpd3 and daratumumab combination (indicated as “Cpd3+Dara” in the figure). The Cpd3 and daratumumab combination treatment comprised dosing with 50 mg/kg Cpd3 on a dosing scheduled of Monday/Wednesday/Friday and dosing with 1 µg/g daratumumab on a dosing schedule of Tuesday and Friday (TF). Mice were monitored until reaching early/end removal criteria (ERC) and overall survival was calculated using Kapler Meyer analysis. The arrow indicates start of treatment. […] The treatment type is indicated below each photographic image as outlined for FIG. 2A. […] Weight loss is typically associated with leukemia progression and has also been associated with DHODH inhibitor treatment. […] Briefly, Spleens were isolated from the animals from each treatment group as they reached ERC. The percentage of human CD45+ cells in the spleen were determined by flow cytometry.
Xenograft Model Methodology. Animal studies were approved by the Institutional Laboratory Animal Care and Use Committee (IACUC) at the Ohio State University. 1E7 M4-11 cells were engrafted intravenously into NSG mice (males, 12-week old, strain NOD.Cg-Prkdcscid ll2rgtm1Wjl/SzJ). These mice were allowed to develop a fatal leukemia, at which point splenocytes containing leukemia cells were collected and cryopreserved. […] Overall survival was calculated using Kapler Meyer analysis. […]

## O=C(N[C@@H]1CCCc2c1[nH]c1ccc(Cl)cc21)c1ccccn1 [GSK983]
[1]
  EC50: 5 to 20 nM

## CCCCOc1cccc(-c2ccc(-c3cc(C(=O)O)c4cc(F)ccc4n3)cc2)c1 [Cpd4, 2-(3′-butoxy-[1,1′-biphenyl]-4-yl)-6-fluoroquinoline-4-carboxylic acid]
[2]
  Median survival: 43 days

## Cc1c(-c2ccc(-c3ccccc3F)cc2)nc2ccc(F)cc2c1C(=O)O [brequinar, reference compound]
[3]
  CD38 surface expression (mean fluorescent intensity): upregulated
[4]
  CD38 surface expression (mean fluorescent intensity): highly upregulated

## CCOc1ccc(-c2ccc(-c3cc(C(=O)O)c4cc(F)ccc4n3)cc2)cc1 [Cpd3, 2-(4′-ethoxy-[1,1′-biphenyl]-4-yl)-6-fluoroquinoline-4-carboxylic acid]
[3]
  CD38 surface expression (mean fluorescent intensity): upregulated
[4]
  CD38 surface expression (mean fluorescent intensity): highly upregulated
[5]; FIG. 2A
  survival compared to the vehicle treatment control group / other treatment groups: modest improvement in survival
[5]; start day 7 post-engraftment, vehicle 35 days
  Estimated median survival time (days PE): 42 days
[5]; N=7 per group, start day 7 post-engraftment
  N died: 7
